Experimental data: patent US6235787A, “Hydrazine derivatives” (Hoffmann-La Roche Inc., priority 1997, dated 2001)

Legend:
Type in all cases: cell-based
[1] = tested on: TNF-α release (THP1 cells); experiment: Test A: Inhibition of TNF-α Release (LPS-stimulated THP1 cells, ELISA); settings: Homo sapiens, THP-1, LPS-induced TNF-α release, 3 hours, 37° C., read-out: Test A IC50 (nMol)
Protocol: Test A: Inhibition of TNF-α Release
THP1 cells were cultivated in RPMI 1640 medium supplemented with antibiotics and 10% foetal calf serum, harvested by centrifugation and diluted to 5×10^5 cells/ml in the above medium supplemented with 20 mM HEPES buffer. Aliquots ([…]) of the cell suspension were plated out on 96 well culture plates and incubated for 0.5 hour at 37° C. prior to the addition of the test compounds. The latter were dissolved in dimethyl sulphoxide (DMSO) to a stock concentration of 1.2 mM which was diluted with phosphate buffered saline/10% DMSO solution to provide test compounds in final concentrations of 10^-9 to 10^-5 M, with each concentration being tested in duplicate. The cells were incubated with the test compounds for 0.5 hour at 37° C., LPS (bacterial lipopolysaccharide) was then added to a concentration of […] and incubation was continued for 3 hours at 37° C. in an atmosphere containing 5% CO2 and at 95% relative humidity. After centrifugation at 260 g for 10 minutes an aliquot of each supernatant was removed and the amount of TNF-a was estimated by ELISA (R & D Systems Europe Ltd., Abingdon, England). The concentration of test compound which brings about 50% inhibition of LPS-induced TNF-a release (IC50) was computed from the dose-response curve.

[2] = tested on: Normal human epidermal keratinocytes (NHEK); experiment: Test C: Inhibition of Keratinocyte Proliferation (3H-thymidine incorporation); settings: 3 days, read-out: Test C IC50 (nMol)
Protocol: Test C: Inhibition of Keratinocyte Proliferation
This test is an adaptation the methods described by T. Karashima, H. Hachisuka and Y. Sasai, J. Dermatol. Sci., (1996), 12, 246-254 and A. Olaniran, B. S. Baker, J. J. Garioch, A. V. Powles and L. Fry, Arch. Dermatol. Res., (1995), 287, 231-236. Normal human epidermal keratinocytes (NHEK) (neonatal and adult) were plated out on 96 well culture plates at 2×10^3 cells per well. Following attachment of the cells to the plate by incubation for 24 hours in a humidified incubator having a 5% CO2 atmosphere at 37° C. in serum-free KGM (see above), the medium was replaced with KBM (see above) for 4 days in order to arrest the growth of the cells. Test compounds were dissolved in DMSO and then diluted 10 times in KBM. Serial dilutions of the test compounds were made in 10% DMSO in KBM to provide concentrations 11 times higher than the final assay concentration. The cells were then returned to KGM and the test compound dilutions (or vehicle only for controls) were added immediately. After incubation for 3 days the cells were pulsed with […] ^3 H-thymidine, specific activity 5 Ci/mmol (Amersham International plc, Little Chalfont, Buckinghamshire, UK), for the last 16 hours. Cells were then detached using trypsin-EDTA and harvested. ^3 H-Thymidine incorporation as a measure of proliferation was determined by scintillation counting techniques. […]

[3] = tested on: TGF-α release (Normal human epidermal keratinocytes); experiment: Test B: Inhibition of TGF-α Release (TPA-stimulated NHEK); settings: 24 hours, 37° C., read-out: Test B IC50 (nMol)
Protocol: Test B: Inhibition of TGF-α Release
This test is an adaptation of the method described by R. J. Coffrey, R. Derynk, J. N. Wilcox, T. S. Bringman, A. S. Goustin, H. L. Moses and M. R. Pittelkow, Nature, (1987), 328, 816-820. Normal human epidermal keratinocytes (NHEK) (neonatal and adult) were supplied by Clonetics Corporation, San Diego, Calif., USA and at the third passage were plated out on 96 well culture plates at 2×10^3 to 10^4 cells per well and grown in a humidified incubator having a 5% CO2 atmosphere at 37° C. for 5 days in serum-free keratocyte growth medium (KGM; Clonetics Corporation). Test compounds were dissolved in DMSO and then diluted 10 times in keratinocyte basal medium (KBM; Clonetics Corporation). Serial dilutions of the test compounds were made in 10% DMSO in KBM to provide concentrations 12 times higher than the final assay concentration. The test compound dilutions (or vehicle only as controls) were added to the cells and incubation was then carried out at 37° C. for 0.5 hour. TGF-a release was then stimulated by the addition of 10 ng/ml TPA (phorbol 12-myristate 13-acetate). […]

| Structure (SMILES) | IC50 [1] [µM] | IC50 [2] [µM] | IC50 [3] [µM] |
| --- | --- | --- | --- |
| CC(C)C[C@@H](C(=O)NN(Cc1ccccc1)S(C)(=O)=O)[C@H](C/C=C/c1ccccc1)C(=O)NO [C, (E)-2'-Benzyl-2(R)-[1(S)-(hydroxycarbamoyl)-4-phenyl-3-butenyl]-2'-(methanesulphonyl)-4-methylvalerohydrazide] | 0.365 | – | – |
| CC(C)C[C@@H](C(=O)NN(c1ccccc1)S(C)(=O)=O)[C@H](C/C=C/c1ccccc1)C(=O)NO [Compound A, (E)-2(R)-[1(S)-(Hydroxycarbamoyl)-4-phenyl-3-butenyl]-2'-(methanesulphonyl)-4-methyl-2'-phenylvalerohydrazide] | 0.437 | 1.3 | 0.21 |
| COc1ccc(N(NC(=O)[C@H](CC(C)C)[C@H](C/C=C/c2ccccc2)C(=O)NO)S(C)(=O)=O)cc1 [Compound B, 1(E)-2(R)-[1(S)-(Hydroxycarbamoyl)-4-phenyl-3-butenyl]-2'-(methanesulphonyl)-2'-(4-methoxyphenyl)-4-methylvalerohydrazide] | 0.515 | 1.1 | 0.255 |
| CC(C)C[C@@H](C(=O)NN(CC1CCCCC1)S(C)(=O)=O)[C@H](C/C=C/c1ccccc1)C(=O)NO [D, (E)-2'-(Cyclohexylmethyl)-2(R)-[1(S)-(hydroxycarbamoyl)-4-phenyl-3-butenyl]-2'-(methanesulphonyl)-4-methylvalerohydrazide] | 0.408 | – | – |
| CC[C@H](C)CN(NC(=O)[C@H](CC(C)C)[C@H](C/C=C/c1ccccc1)C(=O)NO)S(C)(=O)=O [G, (E)-2(R)-[1(S)-(hydroxycarbamoyl)-4-phenyl-3-butenyl]-2'-(methanesulphonyl)-4-methyl-2'-[2(S)-methylbutyl]valerohydrazide] | 0.428 | – | – |
| C=C(C)CN(NC(=O)[C@H](CC(C)C)[C@H](C/C=C/c1ccccc1)C(=O)NO)S(C)(=O)=O [H] | 0.381 | – | – |

Further compounds by falling IC50 [1], results first:

| IC50 [1] [µM] | Structure (SMILES) | IC50 [2] [µM] | IC50 [3] [µM] |
| --- | --- | --- | --- |
| 1.52 | CC(C)C[C@@H](C(=O)NN1C(=O)CCCC1=O)[C@H](C/C=C/c1ccccc1)C(=O)NO [F, (E)-2(R)-[(1S)-(Hydroxycarbamoyl)-4-phenyl-3-butenyl]-4-methyl-N-(2,6-dioxopiperidino)valeramide] | – | – |
| 0.933 | CC(C)CC(=O)N(CC(C)C)NC(=O)[C@H](CC(C)C)[C@H](C/C=C/c1ccccc1)C(=O)NO [J, (E)-2(R)-[(S)-(Hydroxycarbamoyl)-4-phenyl-3-butenyl]-2'-(isobutyl)-2'-(isopentanoyl)-4-methylvalerohydrazide] | – | – |
| 0.881 | COC(=O)N(CC(C)C)NC(=O)[C@H](CC(C)C)[C@H](C/C=C/c1ccccc1)C(=O)NO [Compound I, Methyl (E)-3-[2(R)-[1(S)-(hydroxycarbamoyl)-4-phenyl-3-butenyl]-4-methylvaleryl]-2-isobutylcarbazate] | – | – |
| 0.531 | CC(C)C[C@@H](C(=O)NN(CC(C)C)S(C)(=O)=O)[C@H](C/C=C/c1ccccc1)C(=O)NO [E, (E)-2(R)-[1(S)-(Hydroxycarbamoyl)-4-phenyl-3-butenyl]-2'-isobutyl-2'-(methanesulphonyl)-4-methylvalerohydrazide] | – | – |
